In PubChem BioAssay (NCI):
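Cells were grown in 96-well plates and exposed to each compound for 48 hours at five concentrations; endpoints were interpolated linearly between bracketing concentrations, or set to the highest concentration if not reached. GI50 is the concentration that inhibits growth by half. TGI: concentration producing complete growth inhibition.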

Experiments:
Test in all cases: NCI-60 cell line screen, 48 h
A498 renal = system: A498 renal
OVCAR-5 ovarian = system: OVCAR-5 ovarian
NCI-H226 lung = system: NCI-H226 lung
SK-MEL-5 melanoma = system: SK-MEL-5 melanoma
SK-OV-3 ovarian = system: SK-OV-3 ovarian
HL-60(TB) leukemia = system: HL-60(TB) leukemia
SK-MEL-28 melanoma = system: SK-MEL-28 melanoma
RXF 393 renal = system: RXF 393 renal
ACHN renal = system: ACHN renal
SF-268 CNS = system: SF-268 CNS
HS 578T breast = system: HS 578T breast
CCRF-CEM leukemia = system: CCRF-CEM leukemia
BT-549 breast = system: BT-549 breast
HCC-2998 colon = system: HCC-2998 colon
SW-620 colon = system: SW-620 colon
UACC-62 melanoma = system: UACC-62 melanoma
SR leukemia = system: SR leukemia
MDA-MB-231 breast = system: MDA-MB-231 breast
EKVX NSCLC = system: EKVX NSCLC
NCI-H23 lung = system: NCI-H23 lung
MOLT-4 leukemia = system: MOLT-4 leukemia
A549 NSCLC = system: A549 NSCLC
T-47D breast = system: T-47D breast
OVCAR-8 ovarian = system: OVCAR-8 ovarian
IGROV1 ovarian = system: IGROV1 ovarian
CAKI-1 renal = system: CAKI-1 renal
RPMI-8226 leukemia = system: RPMI-8226 leukemia
HT29 colon = system: HT29 colon
786-0 renal = system: 786-0 renal
HOP-62 NSCLC = system: HOP-62 NSCLC
DU-145 prostate = system: DU-145 prostate
HCT-15 colon = system: HCT-15 colon
NCI/ADR-RES ovarian = system: NCI/ADR-RES ovarian
TK-10 renal = system: TK-10 renal
K-562 leukemia = system: K-562 leukemia
HOP-92 NSCLC = system: HOP-92 NSCLC
PC-3 prostate = system: PC-3 prostate
UACC-257 melanoma = system: UACC-257 melanoma
SK-MEL-2 melanoma = system: SK-MEL-2 melanoma
LOX IMVI melanoma = system: LOX IMVI melanoma
OVCAR-4 ovarian = system: OVCAR-4 ovarian
KM12 colon = system: KM12 colon
MCF7 breast = system: MCF7 breast
COLO 205 colon = system: COLO 205 colon
SN12C renal = system: SN12C renal
NCI-H460 lung = system: NCI-H460 lung
SNB-19 CNS = system: SNB-19 CNS
UO-31 renal = system: UO-31 renal
HCT-116 colon = system: HCT-116 colon
SF-295 CNS = system: SF-295 CNS
U251 CNS = system: U251 CNS
MDA-MB-435 = system: MDA-MB-435
SNB-75 CNS = system: SNB-75 CNS
NCI-H522 lung = system: NCI-H522 lung
SF-539 CNS = system: SF-539 CNS
MALME-3M melanoma = system: MALME-3M melanoma

SMILES: N=C(N)c1ccc(-c2ccc(/C=C/c3ccccc3)s2)cc1
- GI50 (A498 renal): 11.9 µM
- TGI (A498 renal): 34.1 µM
- GI50 (OVCAR-5 ovarian): 1.47 µM
- TGI (OVCAR-5 ovarian): 2.87 µM
- GI50 (NCI-H226 lung): 6.82 µM
- TGI (NCI-H226 lung): 46 µM
- GI50 (SK-MEL-5 melanoma): 2.6 µM
- TGI (SK-MEL-5 melanoma): 7.12 µM
- GI50 (SK-OV-3 ovarian): 2.07 µM
- TGI (SK-OV-3 ovarian): 4.9 µM
- GI50 (HL-60(TB) leukemia): 2.17 µM
- TGI (HL-60(TB) leukemia): 4.67 µM
- GI50 (SK-MEL-28 melanoma): 1.65 µM
- TGI (SK-MEL-28 melanoma): 3.07 µM
- GI50 (RXF 393 renal): 1.65 µM
- TGI (RXF 393 renal): 3.13 µM
- GI50 (ACHN renal): 1.67 µM
- TGI (ACHN renal): 3.03 µM
- GI50 (SF-268 CNS): 4.28 µM
- TGI (SF-268 CNS): 39.7 µM
- GI50 (HS 578T breast): 2.58 µM
- TGI (HS 578T breast): 7.32 µM

SMILES: Cc1nc2c(c(N3CCCc4ccccc43)n1)CCC2
- GI50 (CCRF-CEM leukemia): < 0.01 µM
- TGI (CCRF-CEM leukemia): > 100 µM
- GI50 (BT-549 breast): < 0.01 µM
- TGI (BT-549 breast): 19.6 µM
- GI50 (HCC-2998 colon): < 0.01 µM
- TGI (HCC-2998 colon): > 100 µM
- GI50 (A498 renal): < 0.01 µM
- GI50 (SW-620 colon): < 0.01 µM
- TGI (SW-620 colon): > 100 µM
- GI50 (UACC-62 melanoma): < 0.01 µM
- TGI (UACC-62 melanoma): > 100 µM
- GI50 (SR leukemia): < 0.01 µM
- TGI (SR leukemia): 13.1 µM
- GI50 (MDA-MB-231 breast): 0.0137 µM
- TGI (MDA-MB-231 breast): > 100 µM
- GI50 (EKVX NSCLC): < 0.01 µM
- TGI (EKVX NSCLC): > 100 µM
- GI50 (NCI-H23 lung): < 0.01 µM
- TGI (NCI-H23 lung): > 100 µM
- GI50 (MOLT-4 leukemia): < 0.01 µM
- TGI (MOLT-4 leukemia): 3.07 µM
- GI50 (A549 NSCLC): < 0.01 µM
- TGI (A549 NSCLC): > 100 µM
- GI50 (T-47D breast): 30.7 µM
- TGI (T-47D breast): > 100 µM
- GI50 (OVCAR-8 ovarian): 0.0112 µM
- TGI (OVCAR-8 ovarian): > 100 µM
- GI50 (IGROV1 ovarian): 0.0249 µM
- TGI (IGROV1 ovarian): > 100 µM
- GI50 (CAKI-1 renal): < 0.01 µM
- TGI (CAKI-1 renal): > 100 µM
- GI50 (OVCAR-5 ovarian): 1.7 µM
- TGI (OVCAR-5 ovarian): > 100 µM
- GI50 (RPMI-8226 leukemia): < 0.01 µM
- TGI (RPMI-8226 leukemia): 3.47 µM
- GI50 (HT29 colon): < 0.01 µM
- TGI (HT29 colon): 0.0131 µM
- GI50 (786-0 renal): < 0.01 µM
- TGI (786-0 renal): > 100 µM
- GI50 (HOP-62 NSCLC): < 0.01 µM
- TGI (HOP-62 NSCLC): > 100 µM
- GI50 (DU-145 prostate): < 0.01 µM
- TGI (DU-145 prostate): > 100 µM
- GI50 (NCI-H226 lung): < 0.01 µM
- TGI (NCI-H226 lung): 40.5 µM
- GI50 (HCT-15 colon): < 0.01 µM
- TGI (HCT-15 colon): > 100 µM
- GI50 (NCI/ADR-RES ovarian): < 0.01 µM
- TGI (NCI/ADR-RES ovarian): 0.364 µM
- GI50 (SK-MEL-5 melanoma): < 0.01 µM
- TGI (SK-MEL-5 melanoma): 0.0233 µM
- GI50 (TK-10 renal): 1.62 µM
- TGI (TK-10 renal): > 100 µM
- GI50 (K-562 leukemia): < 0.01 µM
- TGI (K-562 leukemia): > 100 µM
- GI50 (SK-OV-3 ovarian): < 0.01 µM
- TGI (SK-OV-3 ovarian): > 100 µM
- GI50 (HOP-92 NSCLC): 2.42 µM
- TGI (HOP-92 NSCLC): > 100 µM
- GI50 (HL-60(TB) leukemia): < 0.01 µM
- GI50 (PC-3 prostate): < 0.01 µM
- TGI (PC-3 prostate): > 100 µM
- GI50 (UACC-257 melanoma): 12.9 µM
- TGI (UACC-257 melanoma): > 100 µM
- GI50 (SK-MEL-28 melanoma): 11.7 µM
- TGI (SK-MEL-28 melanoma): > 100 µM
- GI50 (SK-MEL-2 melanoma): 0.016 µM
- TGI (SK-MEL-2 melanoma): > 100 µM
- GI50 (LOX IMVI melanoma): < 0.01 µM
- TGI (LOX IMVI melanoma): > 100 µM
- GI50 (OVCAR-4 ovarian): 0.0406 µM
- TGI (OVCAR-4 ovarian): > 100 µM
- GI50 (KM12 colon): < 0.01 µM
- TGI (KM12 colon): > 100 µM
- GI50 (MCF7 breast): 0.0228 µM
- TGI (MCF7 breast): > 100 µM
- GI50 (COLO 205 colon): < 0.01 µM
- TGI (COLO 205 colon): 0.0111 µM
- GI50 (SN12C renal): 0.0161 µM
- TGI (SN12C renal): > 100 µM
- GI50 (NCI-H460 lung): < 0.01 µM
- TGI (NCI-H460 lung): > 100 µM
- GI50 (ACHN renal): < 0.01 µM
- TGI (ACHN renal): > 100 µM
- GI50 (SNB-19 CNS): < 0.01 µM
- TGI (SNB-19 CNS): > 100 µM
- GI50 (SF-268 CNS): 0.0102 µM
- TGI (SF-268 CNS): > 100 µM
- GI50 (UO-31 renal): < 0.01 µM
- TGI (UO-31 renal): > 100 µM
- GI50 (HCT-116 colon): < 0.01 µM
- TGI (HCT-116 colon): 20.6 µM
- GI50 (HS 578T breast): < 0.01 µM
- TGI (HS 578T breast): > 100 µM
- GI50 (SF-295 CNS): < 0.01 µM
- TGI (SF-295 CNS): > 100 µM
- GI50 (U251 CNS): < 0.01 µM
- TGI (U251 CNS): > 100 µM

SMILES: CCCc1cn2c(/C=N/N=C(N)N)c(-c3cccc([N+](=O)[O-])c3)nc2s1
- TGI (CCRF-CEM leukemia): 2.32 µM
- TGI (A498 renal): 33.2 µM
- TGI (SW-620 colon): 8.42 µM
- TGI (MDA-MB-435): 3.46 µM
- TGI (UACC-62 melanoma): 3.15 µM
- TGI (SR leukemia): 3.89 µM
- TGI (MDA-MB-231 breast): 3.04 µM
- TGI (SNB-75 CNS): 3.1 µM
- TGI (NCI-H522 lung): 4.47 µM
- TGI (MOLT-4 leukemia): 2.81 µM
- TGI (T-47D breast): 4.99 µM
- TGI (CAKI-1 renal): 3.83 µM
- TGI (RPMI-8226 leukemia): 4.36 µM
- TGI (NCI-H226 lung): 3.28 µM
- TGI (NCI/ADR-RES ovarian): 10.5 µM
- TGI (SK-MEL-5 melanoma): 3.9 µM
- TGI (TK-10 renal): 0.405 µM
- TGI (SK-OV-3 ovarian): 5.3 µM
- TGI (HOP-92 NSCLC): 32.4 µM
- TGI (SF-539 CNS): 3.15 µM
- TGI (HL-60(TB) leukemia): 4.75 µM
- TGI (PC-3 prostate): 8.19 µM
- TGI (SK-MEL-28 melanoma): 3.18 µM
- TGI (KM12 colon): 3.57 µM
- TGI (COLO 205 colon): 4.35 µM
- TGI (SN12C renal): 2.58 µM
- TGI (NCI-H460 lung): 5.37 µM
- TGI (ACHN renal): 3.38 µM
- TGI (SNB-19 CNS): 4.86 µM
- TGI (HS 578T breast): 7.51 µM
- TGI (MALME-3M melanoma): 2.82 µM
